Results from ChEMBL document CHEMBL1667824 (Bioorg Med Chem, 2011).

Key:
Lactoylglutathione lyase [1] = molecular target: T1, Lactoylglutathione lyase (Homo sapiens, UniProt Q04760); assay: Inhibition of human recombinant His-tagged glyoxalase 1 expressed in Escherichia coli BL21 (DE3) preincubated for 20 mins by Dixon plot analysis
Lactoylglutathione lyase [2] = molecular target: T1, Lactoylglutathione lyase; assay: Inhibition of glyoxalase 1

T1 sequence (Q04760 whole entry): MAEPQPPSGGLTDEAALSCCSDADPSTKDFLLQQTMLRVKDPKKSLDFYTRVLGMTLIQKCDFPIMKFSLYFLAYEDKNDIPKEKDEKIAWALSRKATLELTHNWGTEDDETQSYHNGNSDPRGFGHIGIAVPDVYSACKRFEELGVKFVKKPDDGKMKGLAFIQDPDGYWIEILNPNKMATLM

Compound | Ki (Lactoylglutathione lyase [1]) [µM] | Ki (Lactoylglutathione lyase [2]) [µM]
CC1=C(CC(=O)O)c2cc(F)ccc2/C1=C\c1ccc([S+](C)[O-])cc1 (configuration not stated) | 139 | 77.9
O=C(/C=C(O)/C=C/c1ccc(F)cc1)/C=C/c1ccc(F)cc1 | 4.6 | 
COc1cc(/C=C/C(=O)C(=Cc2ccc(OC)c(OC)c2)C(=O)/C=C/c2ccc(O)c(OC)c2)ccc1O | 4.6 | 
COc1cc(/C=C/C(=O)C(=Cc2ccc(F)cc2)C(=O)/C=C/c2ccc(O)c(OC)c2)ccc1O | 3.2 | 
CC(=O)C(=Cc1cccc([N+](=O)[O-])c1)C(C)=O | 91 | 
CCOC(=O)/C(=C\c1ccc([N+](=O)[O-])cc1)C(C)=O | 159 | 
CCOC(=O)/C(=C\C=C(\C(C)=O)C(=O)OCC)C(C)=O | 39 | 
COc1cc(/C=C/C(O)=C/C(=O)/C=C/c2ccc[nH]2)ccc1O | 18 | 
O=C(/C=C(O)/C=C/c1ccco1)/C=C/c1ccco1 | 1500 | 
COc1ccc(/C=C/C(=O)/C=C(O)/C=C/c2ccc(CO)o2)cc1 | 74 | 
CC(C(=O)O)c1cccc(Oc2ccccc2)c1 (configuration not stated) [FENOPROFEN] | 383 | 400
COc1ccc2c(c1)c(CC(=O)O)c(C)n2C(=O)c1ccc(Cl)cc1 [INDOMETHACIN] | 24 | 18.1
Cc1cc(CC(=O)O)n(C)c1C(=O)c1ccc(Cl)cc1 [ZOMEPIRAC] | 335 | 107

Second part, the compound after the results:

Ki (Lactoylglutathione lyase [1]) [µM] | Ki (Lactoylglutathione lyase [2]) [µM] | Compound
1910 |  | COC(=O)/C=C/c1ccc(F)cc1
29 |  | COc1ccc(/C=C/C(=O)/C=C(O)/C=C/c2ccc(O)cc2)cc1OC
2.6 |  | COc1cc(/C=C/C(=O)C(=Cc2cccc(F)c2)C(=O)/C=C/c2ccc(O)c(OC)c2)ccc1O
3.6 |  | COc1ccc(/C=C/C(=O)C(=Cc2ccc(C=O)c(C=O)c2)C(=O)/C=C/c2ccc(OC)c(OC)c2)cc1OC
109 |  | COc1ccc(/C=C/C(=O)C(=CO)C(=O)/C=C/c2ccc(OC)cc2)cc1
383 |  | COc1ccc(C=C(C(C)=O)C(C)=O)cc1
27 |  | CC(=O)C(=Cc1ccc([N+](=O)[O-])o1)C(C)=O
426 |  | O=C(O)C(=Cc1cccc([N+](=O)[O-])c1)C(=O)O
65 |  | CCOC(=O)/C(=C\c1cccc([N+](=O)[O-])c1)C(C)=O
1390 |  | NC(=O)/C=C/c1ccc(F)cc1
90 |  | COc1cc(/C=C/C(O)=C/C(C)=O)ccc1O
3.6 |  | COc1cc(C=C(C(=O)/C=C/c2ccc(O)c(OC)c2)C(=O)/C=C/c2ccc(O)c(OC)c2)ccc1O
49 | 12.9 | COc1ccc2c(c1)c(CC(=O)OCC(=O)O)c(C)n2C(=O)c1ccc(Cl)cc1 [ACEMETACIN]
18 |  | O=C(/C=C/c1ccc(O)cc1)CC(=O)/C=C/c1ccc(O)cc1 [BISDEMETHOXYCURCUMIN]
385 |  | CCOC(=O)/C=C/c1ccc(O)c(OC)c1 [ETHYL FERULATE]
843 | 414 | CC(C(=O)O)c1cccc(C(=O)c2ccccc2)c1 (configuration not stated) [KETOPROFEN]
1010 | 87.8 | Cc1ccc(C(=O)c2ccc(CC(=O)O)n2C)cc1 [TOLMETIN]
